{
  "source": "patent US11844771B2",
  "about": "“Methods of treating acute respiratory distress syndrome using colchicine” (INSTITUT DE C[…] MONTREAL, priority 2021, dated 2023)",
  "key": {"[1]": {"tested_on": "oleic acid-induced ALI", "assay": "Oleic acid-induced ALI rat model: lung edema and arterial blood gas", "type": "in vivo", "method": "(§1) Animal model and colchicine administration. Male Wistar rats weighing 250-300 g were purchased from Charles River, St. Constant, Québec. They were divided in three groups: Sham+placebo (n=8), oleic acid+placebo (n=8) and oleic acid+colchicine (n=8). Oleic acid (150 mg/kg in 0.3 cc) was prepared daily as a mixture with 0.1% bovine serum albumin (BSA) dissolved in distilled water, stored and protected from light at room temperature. Colchicine (1 mg/kg) or distilled water (placebo) was administered by daily gavage (in a volume up to 2 ml/kg) for three days before the induction of the ALI model. On the beginning of the fourth day a last forth dose of colchicine or placebo was administered and rats immediately injected via a jugular vein cannula with oleic acid or with 0.1% BSA. There was no death in the sham group. There was one death in the oleic acid+placebo group 3 hours after injection of oleic acid and prior to any measurement.\nThere was one surgical death in oleic acid+colchicine treatment by laceration of the jugular vein, prior to injection of oleic acid. Oleic acid was administered under ketamine/xylazine anesthesia by slow bolus injection over 30 seconds and the catheter was flushed with 0.3 ml of 0.1% BSA before and after injection. Four hours later, the animals were studied. Conscious unrestrained respiratory parameters were obtained by whole body plethysmography (Emka technologies). Rats were then anesthetized with 2.5% isoflurance and 100% oxygen (1 L/min) administered with a nose cone/face mask for a duration of 5 minutes before terminal exsanguination. […] Cytokines measurements were assessed with serum isolated with serum clot activator tubes.\n(§2) The lungs were excised for analysis: the left lung was cannulated and perfusion-fixed with 10% buffered formalin for histology and immunohistochemistry. […] Pulmonary edema was measured from the ratio of total divided by dry weight of the right lung. Total weight, including water, was measured and lung tissue was dried in an oven at 60° C. for 5 days and reweighed as dry weight."}, "[2]": {"tested_on": "oleic acid-induced ALI", "assay": "Oleic acid-induced ALI rat model: conscious respiratory parameters by whole body plethysmography", "type": "in vivo", "settings": "OA + colchicine 1 mg/kg gavage, 4 hours after oleic acid, mean ± SEM", "method": "as §1\nThere was one surgical death in oleic acid+colchicine treatment by laceration of the jugular vein, prior to injection of oleic acid. Oleic acid was administered under ketamine/xylazine anesthesia by slow bolus injection over 30 seconds and the catheter was flushed with 0.3 ml of 0.1% BSA before and after injection. Four hours later, the animals were studied. […] Cytokines measurements were assessed with serum isolated with serum clot activator tubes."}, "[3]": {"tested_on": "oleic acid-induced ALI", "assay": "Oleic acid-induced ALI rat model: blood cell counts and biochemistry", "type": "in vivo", "settings": "OA + colchicine 1 mg/kg gavage, 4 hours after oleic acid, mean ± SEM", "method": "as §1\n(§3) There was one surgical death in oleic acid+colchicine treatment by laceration of the jugular vein, prior to injection of oleic acid. Oleic acid was administered under ketamine/xylazine anesthesia by slow bolus injection over 30 seconds and the catheter was flushed with 0.3 ml of 0.1% BSA before and after injection. Four hours later, the animals were studied. Conscious unrestrained respiratory parameters were obtained by whole body plethysmography (Emka technologies). Rats were then anesthetized with 2.5% isoflurance and 100% oxygen (1 L/min) administered with a nose cone/face mask for a duration of 5 minutes before terminal exsanguination. 2 ml of arterial blood was collected through the thoracic aorta into a syringe containing lyophilized heparin for arterial blood gas assessment. The remaining blood was collected into EDTA Lavendar tubes for complete blood count and flow cytometry. Cytokines measurements were assessed with serum isolated with serum clot activator tubes."}, "[4]": {"tested_on": "oleic acid-induced ALI", "assay": "Oleic acid-induced ALI rat model: lung histology and immunohistology (HPS, MPO, Cit-H3)", "type": "in vivo", "settings": "colchicine 1 mg/kg gavage, 4 hours after oleic acid", "method": "as §1\nLung histology and immunohistology. All histological and immunohistological procedures were performed by the same person blinded to treatment assignment. The left lung was cannulated and perfused with 10% formalin PBS-buffered solution and fixed for 5 days. Tissues were dehydrated by incubating in a series of solutions with an increased ethanol content (70, 95, and 100%), followed by xylene, and embedded in paraffin. The specimens were cut into 6-μm sections, mounted on charged slides and processed with hematoxylin phloxine saffron (HPS) staining.\nImmunohistological procedures were initiated by incubating the slides in citrate antigen retrieval (pH 6.0) and endogenous peroxidase blocking (3% hydrogen peroxide). Sections were then blocked by incubating in PBS containing 10% normal goat serum (same species as secondary antibody) for 60 minutes. Slides were incubated with a rabbit polyclonal anti-myeloperoxidase (MPO, Pa5-16672; ThermoFisher, MA USA) for neutrophil detection, with a rabbit polyclonal anti-histone H3 citrulline R2+R8+R17, (Cit-H3, ab5103; ABCAM, Cambridge, United Kingdom) for NETosis and primary antibodies were omitted for negative controls. After washing, sections were incubated with a biotinylated secondary antibody (Vector Laboratories, Burlingame, Calif.) for 30 minutes, washed, then incubated with avidin-biotin complex (ABC kit) and visualized using diaminobenzidine substrate (Vector Laboratories) (27-29).\nThe HPS slides were scanned to get a picture of the whole left lung (Super coolscan 5000; Nikon, Tokyo Japan). Using a brightfield microscope (BX45, Olympus, Richmond Hill, ON, Canada), images were acquired under 200× magnification on the most damaged/altered regions, acquiring 5 fields per slide for the HPS staining and 10 fields per slide for IHC (MPO and Cit-H3) staining. For the HPS staining, the following analyses were performed: 1) thickness of alveolar membranes, 2) percentage (%) of altered lung tissue, and 3) injury score of the lungs.\nTo assess the thickness of alveolar membranes, 20 measurements per field were performed (corresponding to 100 measurements per slide) and were expressed as the mean thickness (μm) of the alveolar membranes. A morphometric analysis has been performed to assess the percentage of altered lung tissue over total lung area (excluding trachea, major bronchi, and blood vessels >700 μm diameter). To evaluate lung injury, we used an adapted version of the standardized histology score from the American Thoracic Society Documents (30). […]"}, "[5]": {"tested_on": "oleic acid-induced ALI", "assay": "Oleic acid-induced ALI rat model: serum cytokine quantification", "type": "in vivo", "settings": "4 hours after oleic acid", "method": "as §1, §3\nSerum cytokine quantification. Quantitative determination of serum IFN-γ, IL-1β, IL-4, IL-5, IL-6, KC/GRO, IL-10, IL-13, and TNF-α was done using the electrochemiluminescence-based Meso Scale Discovery (MSD) platform (Rockville, Md., USA). Proteins levels were measured in a multiplex assay using the V-PLEX Proinflammatory Panel 2 Rat kit (MSD). Samples were diluted 1:5 in proprietary buffer (MSD) and measured. Data were acquired using a MESO QuickPlex SQ 120 plate reader (MSD) and protein concentrations were determined using the MSD Discovery Workbench 4.0 analysis software. All values reported are between the lower and the upper limits of quantification of the kit. Quantitative determination of serum Cit-H3 was measured by a commercially available ELISA kit (Cayman Chemical, 501620, Ann Arbor, Mich., USA)."}, "[6]": {"tested_on": "blood leukocytes", "assay": "In vitro LPS challenge of blood leukocytes from treated rats (CD11b flow cytometry)", "type": "in vivo", "settings": "rat whole blood at sacrifice, LPS 500 ng/mL in vitro, 30 minutes", "method": "as §1\nIn vitro LPS challenge of blood leukocytes. Whole blood samples collected on EDTA-coated tubes were incubated, or not, with LPS (500 ng/mL) for 30 minutes at 37° C. […] Data were analyzed on Diva software version 8.0.1 (BD Biosciences)."}, "[7]": {"tested_on": "blood leukocytes", "assay": "Leukocyte immunophenotyping of whole blood by flow cytometry", "type": "in vivo, rat", "settings": "4 hours after oleic acid", "method": "as §1\nLeukocyte immunophenotyping. Using reverse pipetting, 100 μl of whole blood collected on EDTA-coated tubes were incubated with anti-CD32 to prevent FC-mediated non-specific binding according to the manufacturer's instructions. The panel of antibodies as well as the gating strategy were inspired by Barnett-Vanes and al., PLoS One 2016; 11:e0142520.\nBriefly, a panel of 11 antibodies (Table 1) was used to identify the neutrophils (CD45^+/SSChi/His48^+), the monocytes (CD45^+/SSC^lo/His48 ^hi or lo/CD43^hi or lo), the B lymphocytes (CD45^+/SSC^lo/CD45R^−B220^+), the T lymphocytes (CD45^+/SSC^lo/CD3^+/CD4^+ or CD8^+), and the natural killer cells (CD45^+/SSC^lo/CD161a^+). The whole blood samples were incubated with the antibodies for 20 minutes at room temperature and the BD Pharm Lyse solution was then added for 10 minutes to lyse the erythrocytes. Samples were stored at 4° C. until analysis by flow cytometry (LSRII BD Biosciences). Accucount (Spherotech) was added to establish a cell count per μl of blood. Data were analyzed on Diva software version 8.0.1 (BD Biosciences)."}, "[8]": {"tested_on": "oleic acid-induced ALI", "assay": "Lung tissue mRNA expression of 27 markers of inflammation and injury by RT-qPCR", "type": "in vivo", "settings": "rat lung, 4 hours after oleic acid; colchicine versus OA control", "method": "Animal model and colchicine administration. Male Wistar rats weighing 250-300 g were purchased from Charles River, St. Constant, Québec. They were divided in three groups: Sham+placebo (n=8), oleic acid+placebo (n=8) and oleic acid+colchicine (n=8). Oleic acid (150 mg/kg in 0.3 cc) was prepared daily as a mixture with 0.1% bovine serum albumin (BSA) dissolved in distilled water, stored and protected from light at room temperature. Colchicine (1 mg/kg) or distilled water (placebo) was administered by daily gavage (in a volume up to 2 ml/kg) for three days before the induction of the ALI model. […]\nas §2\nTissue homogenization, RNA extraction, RT-PCR, and real-time PCR. […] RNA integrity and quantity were assessed using a 2100 Bioanalyzer Instrument (Agilent, Santa Clara, Calif.). […] The geometric mean of housekeeping genes ACTB, GAPDH, and XBP1 was used as an internal control to normalize the variability in expression levels which were analyzed using the 2^−ΔΔCT method. […]"}, "[9]": {"settings": "colchicine 1 mg/kg gavage, 4 hours after oleic acid, versus OA control"}, "[10]": {"settings": "rat left lung, HPS staining, mean±SEM"}},
  "note": "Marks after values point to notes of the source that are not given here.",
  "data": [
    {"smiles": "COc1cc2c(c(OC)c1OC)-c1ccc(OC)c(=O)cc1[C@@H](NC(C)=O)CC2", "note": "[colchicine]", "values": [
      {"measurement": "PaO2 (equivalent to PaO2/FiO2)", "setting": "[1]; colchicine 1 mg/kg daily gavage, 4 doses before oleic acid 150 mg/kg iv, 4 hours later, 100% FiO2, mean±SEM", "result": "246±45", "unit": "mmHg"},
      {"measurement": "lung edema (pulmonary edema, total/dry lung weight ratio)", "setting": "[1]; [9]", "result": "reduced"},
      {"measurement": "respiratory acidosis", "setting": "[1]; [9]", "result": "reduced"},
      {"measurement": "Peek expiratory flow", "setting": "[2]", "result": "13.19 ± 1.41"},
      {"measurement": "Peek inspiratory flow", "setting": "[2]", "result": "17.75 ± 2.72", "unit": "mL/s"},
      {"measurement": "Calcium", "setting": "[3]; corrected for pH", "result": "1.40 ± 0.01", "unit": "mmol/L"},
      {"measurement": "Bicarbonate", "setting": "[3]", "result": "27.6 ± 0.8", "unit": "mmol/L"},
      {"measurement": "Lactate", "setting": "[3]", "result": "2.4 ± 0.53", "unit": "mmol/L"},
      {"measurement": "Leukocytes", "setting": "[3]", "result": "4.90 ± 0.68** 10^9/L"},
      {"measurement": "Neutrophils", "setting": "[3]", "result": "2.71 ± 0.36** 10^9/L"},
      {"measurement": "relative reduction of histological lung injury (injured area) versus oleic acid ALI group", "setting": "[4]; rat left lung, HPS staining", "result": 61, "unit": "%"},
      {"measurement": "Mean alveolar wall thickness", "setting": "[4]; [10]", "result": "7.8±1.1", "unit": "μm"},
      {"measurement": "lung injury score (maximum score of 70)", "setting": "[4]; [10]", "result": "28.7±5.0"},
      {"measurement": "proportion of injured area (altered lung tissue over total lung area)", "setting": "[4]; [10]", "result": "9.6±3.1", "unit": "%"},
      {"measurement": "NETosis (Cit-H3 immunostaining intensity), increase over basal level", "setting": "[4]; rat lung, oleic acid alone 63%", "result": 35, "unit": "%"},
      {"measurement": "other cytokines measured: Cit-H3, INF-γ, IL-10, IL-13, IL-4 and IL-5", "setting": "[5]", "result": "no change"},
      {"measurement": "serum IL-6 level", "setting": "[5]; colchicine versus OA control", "result": "trend towards reduced"},
      {"measurement": "serum KC/GRO", "setting": "[5]; colchicine versus OA control", "result": "non-significantly reduced"},
      {"measurement": "serum TNF-α", "setting": "[5]; colchicine versus OA control", "result": "non-significantly reduced"},
      {"measurement": "response to LPS stimulation (cell surface CD11b MFI) in leukocytes and granulocytes", "setting": "[6]", "result": "restored the normal response"},
      {"measurement": "cell surface CD4 and CD8 on respective lymphocyte sub-populations", "setting": "[7]; rat blood", "result": "normalized"},
      {"measurement": "lymphocytes counts on flow cytometry", "setting": "[7]; rat blood", "result": "no change"},
      {"measurement": "neutrophil count on flow cytometry", "setting": "[7]; rat blood", "result": "increase in neutrophils that was significant"},
      {"measurement": "His48 fluorescence of neutrophils", "setting": "[7]; unstimulated rat blood", "result": "normalized"},
      {"measurement": "lung tissue mRNA expression of 27 genes involved in inflammatory responses and injury", "setting": "[8]", "result": "no individual statistically significant effect"}
    ]}
  ]
}
